The text below walks through data of patent publication US10260043B2, “Human extensively self-renewing erythroblasts (ESRE)” (UNIVERSITY OF ROCHESTER, priority 2013, dated 2019).

Some results are limits rather than exact numbers.

For this test, the system named is murine ESREs. The experiment in a line: murine ESRE self-renewal supported by glucocorticoid. In kind it is cell-based, mouse. The following applies: as effectively as 10^−6M dexamethasone; preliminary studies. An excerpt: Other reagents necessary for improving the efficiency with which self-renewing cultures can be derived from human ESCs can be tested. This includes alternate steroids, such as fluticasone proprionate, an extremely potent glucocorticoid agent; our preliminary studies of murine ESREs indicate that doses of fluticasone as low as 10^−9M support erythroblast self-renewal as effectively as 10^−6M dexamethasone. Various lipid additives, including Excyte (Millipore) and Human LDL (Stem Cell Technology) can also be test for to optimizing support human erythroblast self-renewal.

Consider fluticasone proprionate, for which the “dose that supports erythroblast self-renewal” value is on record as ≤ 10^−9 M.
